Measurements as given in publication PMC11593952 (International Journal of Molecular Sciences, 2024).
Like-named read-outs stand apart in the source and are kept apart here.

Tests used:
in vivo [1] = details: for exposure in the plasma, fold higher than CBD, L1, and L3: oral
Protocol: (§1) Animal experiments were conducted in accordance with the National Institutes of Health Laboratory Animal Care and Use Guidelines. Male SPF SD rats from the Animal Center of Anhui Medical University (Hefei, China) were used for the experiment. […] At each time point (0.5, 1, 2, 4, and 8 h) after administration, samples of brain, heart, kidney, liver, lung, and spleen were collected from each rat for tissue distribution study. While for pharmacokinetic study, the plasma samples were gathered from the suborbital vein at 5, 15, 30, and 45 min and 1, 2, 4, 8, and 12 h after oral administration. The maintenance and treatment procedures for experimental animals were approved by the Animal Care and Use Committee of Anhui Medical University (approval number: LLSC20190274). Room temperature was 22 ± 2 °C, using a light/dark (12: 12 h) cycle, the animals were free to consume food and water one day before the experiment.
(§2) An aliquot of 60 μL plasma sample was spiked with 60 µL aqueous ascorbic acid (0.1%) and 20 μL of IS working solution (300 ng/mL). After vortexing for 30 s, 400 µL MTBE was added to plasma sample for liquid–liquid extraction. The mixture was vigorously mixed for 10 min and centrifuged at 12,000 rpm at 4 °C for 5 min; approximately 400 µL of supernatant was transferred to a clean 1.5 mL centrifuge tube and dried under a gentle stream of nitrogen gas. Subsequently, the residue was reconstituted with 100 µL of MeOH/water (7: 3, v/v), vortex-mixed for 2 min, and followed by centrifugation at 12,000 rpm for 20 min. Finally, 20 μL of the supernatant was injected into the UPLC-HRMS system for measurement. The tissue sample (100 mg) was homogenized in normal saline solution (1 mL), 600 μL homogenate sample was spiked with 60 µL aqueous ascorbic acid (0.1%) and 50 μL of the IS working solution (1000 ng/mL), and 1.2 mL MTBE was added for extraction. Then, 1 mL of supernatant was dried and proceeded as plasma sample pretreatment (Figure S1).
(§3) Quantitative analysis using Dionex Ultimate 3000 chromatography hyphenated to Q-Exactive plus Orbitrap mass spectrometer system (Thermo Fisher Scientific, Waltham, MA, USA). The analytes were detected in Full MS/dd-MS^2 mode to choose the parent ion and optimize the retention time; then, we used the parallel reaction monitoring (PRM) mode through positive ionization condition for determination. Xcalibur 4.1 software (Thermo Fisher Scientific) was used for data acquisition and processing.
Chromatographic separation was achieved on a Shimadzu-pack GIST column (50 mm × 2.1 mm, 2 μm, Shimadzu Company, Kyoto, Japan). Binary mobile solvents consisted of water (containing 0.1% FA, v/v) (A) and acetonitrile (B), the gradient program was as follows: 0 min 60% A → 1 min 60% A → 1.5 min 20% A → 7 min 20% A → 7.1 min 60% A → 8.5 min 60% A. The flow rate was set at 0.30 mL/min and the column temperature was 40 °C. The typical source parameters were optimized as follows: spray voltage: 4500 V; capillary temperature: 320 °C; auxiliary gas heater temperature: 200 °C; pressure of sheath gas: 320 kPa; auxiliary gas: 50 kPa.
Phoenix/WinNonlin software (version 6.4; Pharsight, Mountain View, CA, USA) was used to calculate the AUC and other pharmacokinetic parameters in plasma or tissue for each drug in a non-compartmental model.

eeAChE = eeAChE from electric eel, cited from earlier work; for IC50: mean ± SEM, at least three experiments
eqBuChE = eqBuChE from horse serum; mean ± SEM, at least three experiments; read-out: IC50 BuChE; cited from earlier work
[2] = cited from earlier work
in vivo [3] = details: for Cmax / Kp / selectivity ratio: male, SD, rat, in vivo; for Cmax / Kp: po; for Cmax: 15 mg/kg; for Kp: AUCtissue/AUCplasma; for AUCbrain: brain; for AUCheart: heart; for AUCkidney: kidney; for AUCliver: liver; for AUClung: lung; for AUCspleen: spleen
Protocol: Drug exposure in tissue is calculated by drug exposure in the plasma and tissue/plasma distribution coefficient (Kp), as shown in Equation (1):Drug exposure in the tissue = drug exposure in the plasma × Kp(1) where drug exposure in the plasma and the tissue can be calculated by the drug concentration vs. time curve, and Kp values can be calculated by Ctissue/Cplasma or AUCtissue/AUCplasma. […] It is worth mentioning that Kp can be evaluated by the ratio of free fraction of drug candidate in plasma vs. in tissues in steady state. Nevertheless, this assessment is based on “free drug hypothesis” theory, which presumes that free drug concentration in tissue is close to that in plasma.
Dose escalation tests are always evaluated during clinical phase I/II trials, and MTD is constantly associated with drug exposure in certain toxicity-related organs. […] To evaluate the balance between efficacy and toxicity for drug candidates, drug tissue selectivity is a crucial parameter and defined as follows in Equation (2), where the sum of Ctissue or AUCtissue is total drug concentration or AUC in different tissues. Drug tissue selectivity = Ctissue/ΣCtissue or AUCtissue/ΣAUCtissue(2)
as §1, §2, §3
Chromatographic separation was achieved on a Shimadzu-pack GIST column (50 mm × 2.1 mm, 2 μm, Shimadzu Company, Kyoto, Japan).

[4] = male, SD, rat, in vivo, po, 15 mg/kg
[5] = rats, single intragastric 15 mg/kg, plasma

C=C(C)[C@@H]1CCC(C)=C[C@H]1c1c(O)cc(CCCCC)cc1O [CBD, Cannabidiol, reference compound]
AUC (in vivo [1]; [4]): 158 ng·h/mL | AUC(0-inf) (in vivo [1]; [4]): 168 ± 11.5 ng·h/mL | AUC(0-t) (in vivo [1]; [4]): 158 ± 10.6 ng·h/mL | Cmax (in vivo [1]; [4]): 48.9 ± 11 ng/mL | MRT last (in vivo [1]; [4]): 2.84 ± 0.23 h | Tmax (in vivo [1]; [4]): 1.2 ± 0.45 h | half-life (in vivo [1]; [4]): 3.7 ± 1.26 h | CL (in vivo [1]; [5]): 1492 ± 107 mL/min/kg | Vd (in vivo [1]; [5]): 474.16 ± 155.23 L/kg | IC50 (eeAChE): 17100 ± 2430 nM | IC50 (eqBuChE): 670 ± 60 nM | Tmax (reported values) [2]: 0 to 4 h | t1/2 (reported values) [2]: 1.4 to 10.9 h

C=C(C)C1CCC(C)=CC1c1c(O)cc(CCCCC)cc1OC(=O)NC (stereo not shown) [Compound L1]
AUC (in vivo [1]; [4]): 191 ng·h/mL | AUC(0-inf) (in vivo [1]; [4]): 197 ± 58 ng·h/mL | AUC(0-t) (in vivo [1]; [4]): 191 ± 58.7 ng·h/mL | Cmax (in vivo [1]; [4]): 120 ± 15.9 ng/mL | MRT last (in vivo [1]; [4]): 2.05 ± 0.47 h | Tmax (in vivo [1]; [4]): 0.22 ± 0.07 h | half-life (in vivo [1]; [4]): 2.7 ± 1.27 h | metabolism to CBD observed in plasma (in vivo [1]; rats, intragastric administration): can be metabolized to produce CBD | CL (in vivo [1]; [5]): 1353 ± 361.8 mL/min/kg | Vd (in vivo [1]; [5]): 319.94 ± 171.55 L/kg | IC50 (eeAChE): 18900 ± 1110 nM | IC50 (eqBuChE): 128 ± 22 nM

C=C(C)C1CCC(C)=CC1c1c(O)cc(CCCCC)cc1OC(=O)N(C)CC (stereo not shown) [Compound L2]
Cmax (in vivo [1]; [4]): 127 ± 23.6 ng/mL | MRT last (in vivo [1]; [4]): 3.44 ± 0.22 h | Tmax (in vivo [1]; [4]): 1.8 ± 0.45 h | half-life (in vivo [1]; [4]): 2.64 ± 0.45 h | exposure in the plasma, fold higher than CBD, L1, and L3 (in vivo [1]; rats): > 3 fold | CL (in vivo [1]; [5]): 434.5 ± 74.8 mL/min/kg | Vd (in vivo [1]; [5]): 99.38 ± 23.95 L/kg | Cmax (in vivo [3]): 56 ng/g | Kp (in vivo [3]; Kp brain, rats): 0.42 | Kp (in vivo [3]; Kp heart, rats): 2.63 | Kp (in vivo [3]; Kp kidney, rats): 5.51 | Kp (in vivo [3]; Kp liver, rats): 5.3 | Kp (in vivo [3]; Kp lung, rats): 3.27 | Kp (in vivo [3]; Kp spleen, rats): 2.41 | selectivity ratio (in vivo [3]; tissue selectivity in the brain, fold higher than L4, AUCtissue/ΣAUCtissue, L2 vs L4): 21 | selectivity ratio (in vivo [3]; tissue selectivity in the kidney, fold lower than L4, AUCtissue/ΣAUCtissue, L2 vs L4): 1.2 | selectivity ratio (in vivo [3]; tissue selectivity in the liver, fold lower than L4, AUCtissue/ΣAUCtissue, L2 vs L4): 1.8 | AUCbrain (in vivo [3]; rats, oral 15 mg/kg): 213.8 ng·h/g | AUCheart (in vivo [3]; rats, oral 15 mg/kg): 1331.9 ng·h/g | AUCkidney (in vivo [3]; rats, oral 15 mg/kg): 2790.2 ng·h/g | AUCliver (in vivo [3]; rats, oral 15 mg/kg): 2684.5 ng·h/g | AUClung (in vivo [3]; rats, oral 15 mg/kg): 1655.0 ng·h/g | AUCspleen (in vivo [3]; rats, oral 15 mg/kg): 1220.9 ng·h/g | exposure in the kidney, fold lower than L4 (in vivo [3]; rats, oral 15 mg/kg, L2 vs L4): 2.8 fold | exposure in the liver, fold lower than L4 (in vivo [3]; rats, oral 15 mg/kg, L2 vs L4): 1.8 fold | brain concentration relative to L4 (in vivo [3]; rats, oral, L2 vs L4): fivefold higher | IC50 (eeAChE): 15000 ± 1020 nM | IC50 (eqBuChE): 77 ± 5 nM

C=C(C)C1CCC(C)=CC1c1c(O)cc(CCCCC)cc1OC(=O)N1CCCC1 (stereo not shown) [Compound L3]
AUC (in vivo [1]; [4]): 182 ng·h/mL | AUC(0-inf) (in vivo [1]; [4]): 200 ± 32.5 ng·h/mL | AUC(0-t) (in vivo [1]; [4]): 182 ± 13.9 ng·h/mL | Cmax (in vivo [1]; [4]): 60 ± 8.63 ng/mL | MRT last (in vivo [1]; [4]): 2.72 ± 0.6 h | Tmax (in vivo [1]; [4]): 0.95 ± 0.11 h | half-life (in vivo [1]; [4]): 3.09 ± 1.52 h | CL (in vivo [1]; [5]): 1273 ± 194.7 mL/min/kg | Vd (in vivo [1]; [5]): 320.94 ± 106.75 L/kg | IC50 (eqBuChE): 390 ± 40 nM

C=C(C)C1CCC(C)=CC1c1c(O)cc(CCCCC)cc1OC(=O)N(C)Cc1ccc(Cl)cc1 (stereo not shown) [Compound L4]
Cmax (in vivo [1]; [4]): 211 ± 30.7 ng/mL | MRT last (in vivo [1]; [4]): 2.38 ± 0.21 h | Tmax (in vivo [1]; [4]): 0.8 ± 0.11 h | half-life (in vivo [1]; [4]): 2.17 ± 0.19 h | exposure in the plasma, fold higher than CBD, L1, and L3 (in vivo [1]; rats): > 3 fold | CL (in vivo [1]; [5]): 483.2 ± 100 mL/min/kg | Vd (in vivo [1]; [5]): 91.52 ± 22.81 L/kg | Cmax (in vivo [3]): 19 ng/g | Kp (in vivo [3]; Kp brain, rats): 0.088 | Kp (in vivo [3]; Kp heart, rats): 15.1 | Kp (in vivo [3]; Kp kidney, rats): 15.7 | Kp (in vivo [3]; Kp liver, rats): 10.1 | Kp (in vivo [3]; Kp lung, rats): 15.1 | Kp (in vivo [3]; Kp spleen, rats): 11.7 | AUCbrain (in vivo [3]; rats, oral 15 mg/kg): 43.2 ng·h/g | AUCheart (in vivo [3]; rats, oral 15 mg/kg): 7431.3 ng·h/g | AUCkidney (in vivo [3]; rats, oral 15 mg/kg): 7723.4 ng·h/g | AUCliver (in vivo [3]; rats, oral 15 mg/kg): 4951.2 ng·h/g | AUClung (in vivo [3]; rats, oral 15 mg/kg): 7421.8 ng·h/g | AUCspleen (in vivo [3]; rats, oral 15 mg/kg): 5773.9 ng·h/g | Inhibition Rate % at 20 µM, AChE (eeAChE; at 20 µM): 21.4 ± 2.8% | IC50 (eqBuChE): 5.3 ± 1.2 nM

C=C(C)[C@@H]1CCC(C)=C[C@H]1c1c(O)cc(CCCCC)cc1O [L1→CBD]
AUC0-T (in vivo [1]; [5]): 165.91 ± 87.56 ng·h/mL | AUC0-∞ (in vivo [1]; [5]): 172.51 ± 84.52 ng·h/mL | CL (in vivo [1]; [5]): 1718.8 ± 707.3 mL/min/kg | Cmax (in vivo [1]; [5]): 94.59 ± 27.06 ng/mL | MRT0-T (in vivo [1]; [5]): 2.21 ± 0.42 h | Tmax (in vivo [1]; [5]): 0.27 ± 0.15 h | Vd (in vivo [1]; [5]): 577.46 ± 442.26 L/kg | t1/2 (in vivo [1]; [5]): 3.43 ± 1.64 h

CNC(=O)Oc1ccc2c(c1)[C@]1(C)CCN(C)[C@@H]1N2C [physostigmine]
drug concentration in brains after oral vs intramuscular administration, times less [2]: 350 times | drug concentration in plasma after oral vs intramuscular administration, times less [2]: 200 times | bioavailability ([2]; first-pass metabolism): 2%

CCN(C)C(=O)Oc1cccc([C@H](C)N(C)C)c1 [rivastigmine, reference compound]
bioavailability [2]: 36–40%
